Source: ChEMBL document CHEMBL3621140, “Sulfonamide derivatives containing dihydropyrazole moieties selectively and potently inhibit MMP-2/MMP-9: Design, synthesis, inhibitory activity and 3D-QSAR analysis” (Bioorg Med Chem Lett, 2015)

How the values were obtained:
[1] = biological target: 72 kDa type IV collagenase (Homo sapiens, UniProt P08253); assay: Inhibition of APMA-activated human recombinant MMP2 incubated for 5 mins using 4-nitrophenylacetate substrate by esterase assay
HeLa = assay: Antiproliferative activity against human HeLa cells incubated for 48 hrs by MTT assay; format: functional, cell-based
MCF7 = assay: Antiproliferative activity against human MCF7 cells incubated for 48 hrs by MTT assay; format: functional, cell-based; conditions: MCF7, 48 h
[2] = Cytotoxicity against HEK293T cells incubated for 48 hrs by MTT assay; format: cell-based, HEK-293T; conditions: human
A549 [3] = assay: cells; conditions: Homo sapiens, A549, 48 h
[4] = biological target: Matrix metalloproteinase-9 (Homo sapiens, UniProt P14780); assay: Inhibition of APMA-activated human recombinant MMP9 incubated for 5 mins using 4-nitrophenylacetate substrate by esterase assay
Chain of Matrix metalloproteinase-9 (P14780 whole entry): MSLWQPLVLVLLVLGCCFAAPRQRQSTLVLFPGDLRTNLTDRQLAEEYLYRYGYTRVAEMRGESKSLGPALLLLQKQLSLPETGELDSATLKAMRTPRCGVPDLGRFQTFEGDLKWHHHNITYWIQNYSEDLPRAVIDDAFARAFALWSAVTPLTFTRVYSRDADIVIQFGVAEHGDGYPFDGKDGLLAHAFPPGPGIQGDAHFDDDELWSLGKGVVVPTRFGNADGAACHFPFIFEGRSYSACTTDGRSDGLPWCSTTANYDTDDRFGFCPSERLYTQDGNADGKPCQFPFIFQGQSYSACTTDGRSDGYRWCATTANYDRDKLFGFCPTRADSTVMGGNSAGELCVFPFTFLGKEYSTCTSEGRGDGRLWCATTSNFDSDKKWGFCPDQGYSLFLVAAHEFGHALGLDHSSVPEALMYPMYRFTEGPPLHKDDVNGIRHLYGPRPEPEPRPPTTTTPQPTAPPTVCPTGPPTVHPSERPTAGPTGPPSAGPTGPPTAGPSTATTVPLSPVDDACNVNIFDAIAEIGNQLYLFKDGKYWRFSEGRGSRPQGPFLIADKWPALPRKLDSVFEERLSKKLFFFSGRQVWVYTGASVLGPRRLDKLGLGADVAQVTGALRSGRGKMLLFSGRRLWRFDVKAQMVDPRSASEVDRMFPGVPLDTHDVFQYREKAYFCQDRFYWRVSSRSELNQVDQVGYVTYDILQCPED

HepG2 = assay: Antiproliferative activity against human HepG2 cells incubated for 48 hrs by MTT assay; format: functional, cell-based; conditions: HepG2, 48 h
A549 [5] = assay: Induction of apoptosis in human A549 cells assessed as necrotic cells level at 4 uM by AnnexinV-FITC and propidium iodide staining based flow cytometry (reference value: 0.964%); format: functional
A549 [6] = assay: Induction of apoptosis in human A549 cells assessed as viable cells at 2 uM by AnnexinV-FITC and propidium iodide staining based flow cytometry (reference value: 85.3%); format: functional; conditions: read-out: Activity
A549 [7] = assay: Induction of apoptosis in human A549 cells by AnnexinV-FITC and propidium iodide staining based flow cytometry; format: functional, cell-based
A549 [8] = assay: Induction of apoptosis in human A549 cells assessed as necrotic cells level at 16 uM by AnnexinV-FITC and propidium iodide staining based flow cytometry (reference value: 0.964%); format: functional
A549 [9] = assay: Induction of apoptosis in human A549 cells assessed as early apoptotic cells level at 4 uM by AnnexinV-FITC and propidium iodide staining based flow cytometry (reference value: 5.08%); format: functional
A549 [10] = assay: Induction of apoptosis in human A549 cells assessed as early apoptotic cells level at 2 uM by AnnexinV-FITC and propidium iodide staining based flow cytometry (reference value: 5.08%); format: functional
A549 [11] = assay: Induction of apoptosis in human A549 cells assessed as late apoptotic cells level at 4 uM by AnnexinV-FITC and propidium iodide staining based flow cytometry (reference value: 8.81%); format: functional
A549 [12] = assay: Induction of apoptosis in human A549 cells assessed as viable cells at 16 uM by AnnexinV-FITC and propidium iodide staining based flow cytometry (reference value: 85.3%); format: functional; conditions: read-out: Activity
A549 [13] = assay: Induction of apoptosis in human A549 cells assessed as late apoptotic cells level at 2 uM by AnnexinV-FITC and propidium iodide staining based flow cytometry (reference value: 8.81%); format: functional
A549 [14] = assay: Induction of apoptosis in human A549 cells assessed as late apoptotic cells level at 16 uM by AnnexinV-FITC and propidium iodide staining based flow cytometry (reference value: 8.81%); format: functional
A549 [15] = assay: Induction of apoptosis in human A549 cells assessed as necrotic cells level at 2 uM by AnnexinV-FITC and propidium iodide staining based flow cytometry (reference value: 0.964%); format: functional
A549 [16] = assay: Induction of apoptosis in human A549 cells assessed as early apoptotic cells level at 16 uM by AnnexinV-FITC and propidium iodide staining based flow cytometry (reference value: 5.08%); format: functional
A549 [17] = assay: Induction of apoptosis in human A549 cells assessed as viable cells at 4 uM by AnnexinV-FITC and propidium iodide staining based flow cytometry (reference value: 85.3%); format: functional; conditions: read-out: Activity

Chain of 72 kDa type IV collagenase (P08253 whole entry): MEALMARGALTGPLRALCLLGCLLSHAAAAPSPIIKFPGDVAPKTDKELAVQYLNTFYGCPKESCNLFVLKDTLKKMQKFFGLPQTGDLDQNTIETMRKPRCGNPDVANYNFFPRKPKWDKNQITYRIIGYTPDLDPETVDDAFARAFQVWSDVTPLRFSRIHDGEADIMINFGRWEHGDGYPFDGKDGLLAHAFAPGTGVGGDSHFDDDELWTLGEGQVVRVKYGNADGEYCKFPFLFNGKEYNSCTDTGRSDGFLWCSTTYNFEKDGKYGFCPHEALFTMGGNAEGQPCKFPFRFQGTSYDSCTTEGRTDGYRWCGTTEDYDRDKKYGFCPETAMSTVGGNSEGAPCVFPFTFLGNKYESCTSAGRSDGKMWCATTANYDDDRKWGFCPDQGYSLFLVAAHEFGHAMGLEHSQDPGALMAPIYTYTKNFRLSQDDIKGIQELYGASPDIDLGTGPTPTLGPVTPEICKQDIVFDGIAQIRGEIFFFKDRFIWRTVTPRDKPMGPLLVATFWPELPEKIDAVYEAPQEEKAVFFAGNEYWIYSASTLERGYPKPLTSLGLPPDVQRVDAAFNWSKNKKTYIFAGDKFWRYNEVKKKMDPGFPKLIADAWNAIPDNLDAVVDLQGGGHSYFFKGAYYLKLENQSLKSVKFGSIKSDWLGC

Row | SMILES | IC50 ([1]; read-out: IC50) [µM] | IC50 (HeLa) [µM] | IC50 (MCF7) [µM] | CC50 at 48 h [2] [µM] | IC50 (A549 [3]) [µM] | IC50 [4] [µM] | IC50 (HepG2) [µM] | also measured
1 | NS(=O)(=O)c1ccc(N2N=C(c3ccc(Cl)cc3)CC2c2ccc3ccccc3c2)cc1 (centres undefined) | 3.6 | 19.2 | 12.4 | 54.8 | 2.76 | 5.88 | 25 | –
2 | Cc1cccc(C2=NN(c3ccc(S(N)(=O)=O)cc3)C(c3ccc4ccccc4c3)C2)c1 (centres undefined) | 3.86 | 26.4 | 11.1 | 52.4 | 7.64 | 5.92 | 7.68 | –
3 | COc1cccc(C2=NN(c3ccc(S(N)(=O)=O)cc3)C(c3ccc4ccccc4c3)C2)c1 (centres undefined) | 2.15 | 36.5 | 13.6 | 49.4 | 8.67 | 4.68 | 26 | –
4 | NS(=O)(=O)c1ccc(N2N=C(c3ccc(Cl)cc3)CC2c2cccc3ccccc23)cc1 (centres undefined) | 2.7 | 11.5 | 18 | 49.2 | 2.98 | 5.47 | 16.4 | –
5 | NS(=O)(=O)c1ccc(N2N=C(c3cccc(I)c3)CC2c2ccc3ccccc3c2)cc1 (centres undefined) | 15.7 | 32 | 11.1 | 55.9 | 12 | 6.91 | 18.1 | –
6 | CCOc1ccc(C2=NN(c3ccc(S(N)(=O)=O)cc3)C(c3cccc4ccccc34)C2)cc1 (centres undefined) | 0.81 | 18.5 | 35.1 | 59.5 | 3.33 | 3.19 | 8.66 | –
7 | NS(=O)(=O)c1ccc(N2N=C(c3ccccc3)CC2c2cccc3ccccc23)cc1 (centres undefined) | 7.92 | 20.2 | 22.6 | 51.4 | 12.9 | 10.9 | 19.1 | –
8 | NS(=O)(=O)c1ccc(N2N=C(c3ccccc3Cl)CC2c2cccc3ccccc23)cc1 (centres undefined) | 8.63 | 29.1 | 23.6 | 53.1 | 7.38 | 12 | 10 | IC50 ([1]; read-out: pIC50 (converted)): 8.51 µM
9 | Cc1cccc(C2=NN(c3ccc(S(N)(=O)=O)cc3)C(c3cccc4ccccc34)C2)c1 (centres undefined) | 3.24 | 9.87 | 8.63 | 48.2 | 3.14 | 4.29 | 5.83 | –
10 | NS(=O)(=O)c1ccc(N2N=C(c3ccccc3Cl)CC2c2ccc3ccccc3c2)cc1 (centres undefined) | 14.8 | 16.4 | 8.64 | 49.9 | 2.16 | 8.72 | 31.1 | –
11 | Cc1ccc(C2=NN(c3ccc(S(N)(=O)=O)cc3)C(c3cccc4ccccc34)C2)c(C)c1 (centres undefined) | 0.21 | 12.1 | 18.1 | 52.5 | 1.9 | 1.87 | 6.99 | Activity (A549 [5]): 1.14%; viability at 2 µM (A549 [6]): 82.8%; Activity (A549 [7]): Dose-dependent effect; Activity (A549 [8]): 0.868%; Activity (A549 [9]): 4.84%; Activity (A549 [10]): 5.91%; Activity (A549 [11]): 12.9%; viability at 16 µM (A549 [12]): 78.3%; Activity (A549 [13]): 10.2%; Activity (A549 [14]): 16.9%; Activity (A549 [15]): 1.1%; Activity (A549 [16]): 3.88%; viability at 4 µM (A549 [17]): 81.1%
12 | Cc1ccccc1C1=NN(c2ccc(S(N)(=O)=O)cc2)C(c2ccc3ccccc3c2)C1 (centres undefined) | 11.4 | 15.6 | 16.3 | 51.7 | 6.84 | 7.91 | 6.88 | –
13 | NS(=O)(=O)c1ccc(N2N=C(c3ccccc3)CC2c2ccc3ccccc3c2)cc1 (centres undefined) | 12.6 | 13 | 21.6 | 50.5 | 8.42 | 33.8 | 17.9 | –
14 | NS(=O)(=O)c1ccc(N2N=C(c3cccc(Br)c3)CC2c2cccc3ccccc23)cc1 (centres undefined) | 11.4 | 28.8 | 28.8 | 42.2 | 8.19 | 7.97 | 14.9 | IC50 ([1]; read-out: pIC50 (converted)): 11.2 µM
15 | CCOc1ccc(C2=NN(c3ccc(S(N)(=O)=O)cc3)C(c3ccc4ccccc4c3)C2)cc1 (centres undefined) | 14.9 | 35.4 | 38.2 | 53.8 | 17.8 | 18.3 | 9.17 | –
16 | NS(=O)(=O)c1ccc(N2N=C(c3cccc(I)c3)CC2c2cccc3ccccc23)cc1 (centres undefined) | 9.43 | 26 | 18.1 | 46.9 | 6.83 | 12.9 | 8.06 | –
17 | COc1ccc(C2=NN(c3ccc(S(N)(=O)=O)cc3)C(c3cccc4ccccc34)C2)cc1 (centres undefined) | 4.27 | 30.1 | 26.4 | 47.1 | 6.51 | 8.61 | 27.8 | IC50 ([1]; read-out: pIC50 (converted)): 4.17 µM
18 | COc1cc2ncnc(Nc3ccc(F)c(Cl)c3)c2cc1OCCCN1CCOCC1 [GEFITINIB] | – | – | – | – | 2.86 | – | – | –
19 | Cc1ccccc1C1=NN(c2ccc(S(N)(=O)=O)cc2)C(c2cccc3ccccc23)C1 (centres undefined) | 2.91 | 6.37 | 10 | 51.2 | 2.84 | 5.43 | 5.38 | –
20 | COc1ccc(C2=NN(c3ccc(S(N)(=O)=O)cc3)C(c3ccc4ccccc4c3)C2)cc1 (centres undefined) | 9.9 | 35.4 | 50.6 | 45.4 | 9.31 | 19 | 22.3 | –
21 | Cc1ccc(C2=NN(c3ccc(S(N)(=O)=O)cc3)C(c3cccc4ccccc34)C2)cc1 (centres undefined) | 6.81 | 8.61 | 9.89 | 51.3 | 7.77 | 16 | 7.04 | –
22 | C[C@@]1(O)c2cccc(O)c2C(=O)C2=C(O)[C@]3(O)C(=O)C(C(N)=O)=C(O)C[C@@H]3C[C@@H]21 | 1.26 | – | – | – | – | 2.52 | – | –
23 | Cc1ccc(C2=NN(c3ccc(S(N)(=O)=O)cc3)C(c3ccc4ccccc4c3)C2)cc1 (centres undefined) | 2.81 | 17.6 | 18.2 | 53.1 | 6.9 | 4.95 | 8.32 | –
24 | NS(=O)(=O)c1ccc(N2N=C(c3ccc(F)cc3)CC2c2ccc3ccccc3c2)cc1 (centres undefined) | 16.8 | 26.1 | 12.3 | 49.5 | 6.95 | 19.8 | 20.7 | –
25 | Cc1ccc(-c2cc(C(F)(F)F)nn2-c2ccc(S(N)(=O)=O)cc2)cc1 [CELECOXIB] | – | 7.55 | 6.88 | 54.4 | 2.15 | – | 0.76 | –
26 | NS(=O)(=O)c1ccc(N2N=C(c3cccc(F)c3)CC2c2ccc3ccccc3c2)cc1 (centres undefined) | 23.8 | 21.1 | 13.1 | 49 | 7.83 | 5.96 | 24.8 | –
27 | NS(=O)(=O)c1ccc(N2N=C(c3cccc(Br)c3)CC2c2ccc3ccccc3c2)cc1 (centres undefined) | 17.8 | 23.7 | 9.15 | 47 | 10.3 | 13.9 | 29 | –
28 | COc1cccc(C2=NN(c3ccc(S(N)(=O)=O)cc3)C(c3cccc4ccccc34)C2)c1 (centres undefined) | 4.83 | 30.6 | 26.1 | 45.3 | 5.82 | 6.72 | 36.4 | –
